The supplement of paper PMC10307832

Columns and labels:
Experiment in all cases: relative viability (nuclei count vs DMSO), 5 days (fraction); higher = more cells survive
RU-SKI 43 + Alpelisib = compound: CC[C@@H](C)CNCC(=O)N1CCC2=C([C@@H]1COC3=CC=CC(=C3)C)C=CS2 [RU-SKI 43] + Cc1nc(NC(=O)N2CCC[C@H]2C(N)=O)sc1-c1ccnc(C(C)(C)C(F)(F)F)c1 [Alpelisib] (partner 2 µM)
Outline: (§1)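 After 5 days of treatment, lung cancer cells in 1536-well plates were fixed and stained in a single step (final 0.05% Triton X-100, 1% formaldehyde, 1 ug/ml Hoechst) and their nuclei counted on 4× images. Treatment had been applied by pin tool the day after seeding as one drug alone or as a fixed anchor-drug dose with five library-drug doses (not always all listed) in √10 steps. Relative viability is the nuclei count of treated wells divided by that of vehicle wells, and values are medians of duplicate plates.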

RU-SKI 43 + Pemetrexed = compound: CC[C@@H](C)CNCC(=O)N1CCC2=C([C@@H]1COC3=CC=CC(=C3)C)C=CS2 [RU-SKI 43] + Nc1nc2[nH]cc(CCc3ccc(C(=O)N[C@@H](CCC(=O)O)C(=O)O)cc3)c2c(=O)[nH]1 [Pemetrexed] (partner 0.2 µM)
Outline: as §1

Irinotecan + Navitoclax = compound: CCc1c2c(nc3ccc(OC(=O)N4CCC(N5CCCCC5)CC4)cc13)-c1cc3c(c(=O)n1C2)COC(=O)[C@]3(O)CC [Irinotecan] + CC1(C)CCC(c2ccc(Cl)cc2)=C(CN2CCN(c3ccc(C(=O)NS(=O)(=O)c4ccc(N[C@H](CCN5CCOCC5)CSc5ccccc5)c(S(=O)(=O)C(F)(F)F)c4)cc3)CC2)C1 [Navitoclax] (partner 0.5 µM)
Outline: as §1

Irinotecan + Lapatinib = compound: CCc1c2c(nc3ccc(OC(=O)N4CCC(N5CCCCC5)CC4)cc13)-c1cc3c(c(=O)n1C2)COC(=O)[C@]3(O)CC [Irinotecan] + CS(=O)(=O)CCNCc1ccc(-c2ccc3ncnc(Nc4ccc(OCc5cccc(F)c5)c(Cl)c4)c3c2)o1 [Lapatinib] (partner 2 µM)
Outline: as §1

UMC-11
relative viability (RU-SKI 43 + Alpelisib; first compound 0.1 µM): 1.06 | relative viability (RU-SKI 43 + Alpelisib; first compound 0.3162 µM): 1.18 | relative viability (RU-SKI 43 + Alpelisib; first compound 1 µM): 1.16 | relative viability (RU-SKI 43 + Alpelisib; first compound 3.162 µM): 1.04 | relative viability (RU-SKI 43 + Alpelisib; first compound 10 µM): 0.901 | relative viability (RU-SKI 43 + Pemetrexed; first compound 0.1 µM): 0.871 | relative viability (RU-SKI 43 + Pemetrexed; first compound 0.3162 µM): 0.951 | relative viability (RU-SKI 43 + Pemetrexed; first compound 1 µM): 0.91 | relative viability (RU-SKI 43 + Pemetrexed; first compound 3.162 µM): 0.824 | relative viability (RU-SKI 43 + Pemetrexed; first compound 10 µM): 0.837 | relative viability (Irinotecan + Navitoclax; first compound 0.6325 µM): 0.235 | relative viability (Irinotecan + Navitoclax; first compound 2 µM): 0.208 | relative viability (Irinotecan + Navitoclax; first compound 6.325 µM): 0.163 | relative viability (Irinotecan + Navitoclax; first compound 20 µM): 0.147 | relative viability (Irinotecan + Lapatinib; first compound 0.6325 µM): 0.354 | relative viability (Irinotecan + Lapatinib; first compound 2 µM): 0.452 | relative viability (Irinotecan + Lapatinib; first compound 6.325 µM): 0.259 | relative viability (Irinotecan + Lapatinib; first compound 20 µM): 0.2
